The target in one data set is UFC1. Briefly: reporter assay of Huesken 2005. Conditions: siRNA.
A further data set addresses NOG. Nature of the data set: reporter assay of Huesken 2005. Conditions: siRNA.

Oligonucleotides are written 5' to 3', each unit as a sugar letter and its base; * is a phosphorothioate linkage, no mark a phosphodiester; rarer units and linkages stand in square brackets, end groups in braces. Plain capitals give the bases only. d = 2'-deoxy (DNA); r = 2'-OH (RNA)
Note: test concentration or dose not given here.

On to “sense rCrUrGrGrGrUrCrCrArUrGrGrCrUrGrGrCrArGdTdT / antisense rCrUrGrCrCrArGrCrCrArUrGrGrArCrCrCrArGdCdC”, for which, in the data set with UFC1, the normalised inhibition (eCFP-eYFP dual reporter) turned out to be 60.5%.
The same measure, in the same setting: next, “sense rGrGrArUrGrGrArArArGrArCrArGrCrArArArGdTdT / antisense rCrUrUrUrGrCrUrGrUrCrUrUrUrCrCrArUrCrCdAdG”: 103%.
Turning to “sense rArCrGrGrArUrCrArUrUrUrCrArArArCrCrUrUdTdT / antisense rArArGrGrUrUrUrGrArArArUrGrArUrCrCrGrUdCdA”, in the data set with UFC1, the normalised inhibition (eCFP-eYFP dual reporter) was found to be 106%.
Regarding “sense rCrCrUrGrArGrCrUrGrGrArUrGrGrArArArGrAdTdT / antisense rUrCrUrUrUrCrCrArUrCrCrArGrCrUrCrArGrGdAdA”, the normalised inhibition (eCFP-eYFP dual reporter) with UFC1 was 120%.
“sense rArUrCrUrCrArUrGrGrCrUrCrUrGrGrGrGrCrUdTdT / antisense rArGrCrCrCrCrArGrArGrCrCrArUrGrArGrArUdGdA”: the normalised inhibition (eCFP-eYFP dual reporter) in the data set with UFC1 worked out at 53.8%.
“sense rUrGrArCrArArCrGrArUrUrGrGrUrUrCrCrGrAdTdT / antisense rUrCrGrGrArArCrCrArArUrCrGrUrUrGrUrCrAdGdC”: the normalised inhibition (eCFP-eYFP dual reporter) with UFC1 turned out to be 76.1%.
Still for that read-out and setting: then “sense rGrCrCrCrCrArGrArArArUrUrGrCrArGrUrUrCdTdT / antisense rGrArArCrUrGrCrArArUrUrUrCrUrGrGrGrGrCdAdG”, with 61.7%; and “sense rGrUrGrGrArGrArArCrArArCrArArGrArArUrGdTdT / antisense rCrArUrUrCrUrUrGrUrUrGrUrUrCrUrCrCrArCdAdT”, with 68.9%.
Still for that read-out and setting: then “sense rGrGrCrUrCrUrGrGrGrGrCrUrGrGrGrUrCrCrAdTdT / antisense rUrGrGrArCrCrCrArGrCrCrCrCrArGrArGrCrCdAdT”, with 69.9%.
As to “sense rGrCrGrArCrUrGrArArGrGrArGrGrArArUrArUdTdT / antisense rArUrArUrUrCrCrUrCrCrUrUrCrArGrUrCrGrCdTdG”, in the data set with UFC1, the normalised inhibition (eCFP-eYFP dual reporter) was found to be 107%.
Regarding “sense rGrCrCrUrGrArCrGrGrArUrCrArUrUrUrCrArAdTdT / antisense rUrUrGrArArArUrGrArUrCrCrGrUrCrArGrGrCdAdT”, the normalised inhibition (eCFP-eYFP dual reporter) in the data set with UFC1 came out at 117%.
For the substance “sense rCrGrUrCrArUrCrCrArArCrArCrArArArGrArGdTdT / antisense rCrUrCrUrUrUrGrUrGrUrUrGrGrArUrGrArCrGdCdC”, the normalised inhibition (eCFP-eYFP dual reporter) with UFC1 stood at 86.3%.
The same measure, in the same setting: then “sense rArUrCrArCrArUrArUrCrCrUrArCrUrArCrUrGdTdT / antisense rCrArGrUrArGrUrArGrGrArUrArUrGrUrGrArUdAdG”, with 69.2%; and “sense rArCrUrArGrCrUrCrArUrCrUrCrArUrGrGrCrUdTdT / antisense rArGrCrCrArUrGrArGrArUrGrArGrCrUrArGrUdCdC”, with 53.8%.
The same measure, in the same setting: next, “sense rGrArCrGrGrArUrCrArUrUrUrCrArArArCrCrUdTdT / antisense rArGrGrUrUrUrGrArArArUrGrArUrCrCrGrUrCdAdG”: 123%.
For “sense rCrUrGrGrArGrUrCrCrArArCrArArGrGrArArGdTdT / antisense rCrUrUrCrCrUrUrGrUrUrGrGrArCrUrCrCrArGdTdC”, the normalised inhibition (eCFP-eYFP dual reporter) in the data set with UFC1 was 66.3%.
The same measure, in the same setting: then “sense rGrGrCrArArArArUrArUrGrCrCrUrGrArCrGrGdTdT / antisense rCrCrGrUrCrArGrGrCrArUrArUrUrUrUrGrCrCdAdC”, with 99.9%; and “sense rCrArGrUrCrCrCrUrUrArUrCrCrGrGrUrArUrGdTdT / antisense rCrArUrArCrCrGrGrArUrArArGrGrGrArCrUrGdAdT”, with 78.8%; and “sense rUrGrGrUrUrCrCrGrArCrUrGrGrArGrUrCrCrAdTdT / antisense rUrGrGrArCrUrCrCrArGrUrCrGrGrArArCrCrAdAdT”, with 71.9%.
Turning to “sense rUrGrCrCrCrCrArGrArArArUrUrGrCrArGrUrUdTdT / antisense rArArCrUrGrCrArArUrUrUrCrUrGrGrGrGrCrAdGdT”, in the data set with UFC1, the normalised inhibition (eCFP-eYFP dual reporter) came to 44.9%.
Same read-out and setting: next, “sense rArUrCrArGrUrCrCrCrUrUrArUrCrCrGrGrUrAdTdT / antisense rUrArCrCrGrGrArUrArArGrGrGrArCrUrGrArUdAdT”: 99.1%.
Same read-out and setting: next, “sense rGrCrUrGrGrCrArGrUrGrGrArArArUrCrCrCrUdTdT / antisense rArGrGrGrArUrUrUrCrCrArCrUrGrCrCrArGrCdCdA”: 48.5%; “sense rGrCrCrArGrGrArArUrGrUrGrCrCrCrArArArUdTdT / antisense rArUrUrUrGrGrGrCrArCrArUrUrCrCrUrGrGrCdCdC”: 77.2%.
Same read-out and setting: then “sense rCrUrGrArCrGrGrArUrCrArUrUrUrCrArArArCdTdT / antisense rGrUrUrUrGrArArArUrGrArUrCrCrGrUrCrArGdGdC”, with 65.7%.
In the case of “sense rCrGrArGrUrUrUrGrArCrArUrUrCrCrUrArUrCdTdT / antisense rGrArUrArGrGrArArUrGrUrCrArArArCrUrCrGdAdT”, the normalised inhibition (eCFP-eYFP dual reporter) in the data set with UFC1 was 95.7%.
As to “sense rArUrGrGrArArArGrArCrArGrCrArArArGrArUdTdT / antisense rArUrCrUrUrUrGrCrUrGrUrCrUrUrUrCrCrArUdCdC”, the normalised inhibition (eCFP-eYFP dual reporter) with UFC1 was found to be 69.9%.
The same measure, in the same setting: then “sense rArGrGrArArGrGrArArCrUrCrGrGrUrGrGrUrUdTdT / antisense rArArCrCrArCrCrGrArGrUrUrCrCrUrUrCrCrUdTdG”, with 61.8%.
The same measure, in the same setting: then “sense rArArGrArCrArGrCrArArArGrArUrGrUrArCrAdTdT / antisense rUrGrUrArCrArUrCrUrUrUrGrCrUrGrUrCrUrUdTdC”, with 113%; and “sense rUrCrArUrCrCrArArCrArCrArArArGrArGrArAdTdT / antisense rUrUrCrUrCrUrUrUrGrUrGrUrUrGrGrArUrGrAdCdG”, with 93%; and “sense rUrGrGrCrArGrUrGrGrArArArUrCrCrCrUrGrAdTdT / antisense rUrCrArGrGrGrArUrUrUrCrCrArCrUrGrCrCrAdGdC”, with 71.4%.
Still for that read-out and setting: then “sense rArGrUrCrCrCrUrUrArUrCrCrGrGrUrArUrGrUdTdT / antisense rArCrArUrArCrCrGrGrArUrArArGrGrGrArCrUdGdA”, with 74.6%; and “sense rUrGrGrGrUrCrCrArUrGrGrCrUrGrGrCrArGrUdTdT / antisense rArCrUrGrCrCrArGrCrCrArUrGrGrArCrCrCrAdGdC”, with 35.2%.
For “sense rGrArCrArGrCrArArArGrArUrGrUrArCrArGrGdTdT / antisense rCrCrUrGrUrArCrArUrCrUrUrUrGrCrUrGrUrCdTdT”, the normalised inhibition (eCFP-eYFP dual reporter) with UFC1 was found to be 50.1%.
As to “sense rGrArUrCrArUrUrUrCrArArArCrCrUrUrUrGrUdTdT / antisense rArCrArArArGrGrUrUrUrGrArArArUrGrArUrCdCdG”, the normalised inhibition (eCFP-eYFP dual reporter) with UFC1 stood at 98.8%.
Same read-out and setting: next, “sense rGrCrUrGrArCrArArCrGrArUrUrGrGrUrUrCrCdTdT / antisense rGrGrArArCrCrArArUrCrGrUrUrGrUrCrArGrCdAdT”: 78%.
The same measure, in the same setting: then “sense rCrCrGrGrArCrCrCrCrGrArGrArUrCrGrUrGrAdTdT / antisense rUrCrArCrGrArUrCrUrCrGrGrGrGrUrCrCrGrGdCdG”, with 56.6%.
As to “sense rArArCrArArGrArArUrGrCrUrGrArCrArArCrGdTdT / antisense rCrGrUrUrGrUrCrArGrCrArUrUrCrUrUrGrUrUdGdT”, the normalised inhibition (eCFP-eYFP dual reporter) with UFC1 came to 43.3%.
As to “sense rCrCrUrCrArUrCrGrArArCrArCrCrCrArGrArCdTdT / antisense rGrUrCrUrGrGrGrUrGrUrUrCrGrArUrGrArGrGdTdC”, the normalised inhibition (eCFP-eYFP dual reporter) in the data set with NOG came out at 79.3%.
Regarding “sense rCrGrCrUrGrCrUrGrCrGrCrUrCrGrCrUrGrCrUdTdT / antisense rArGrCrArGrCrGrArGrCrGrCrArGrCrArGrCrGdTdC”, the normalised inhibition (eCFP-eYFP dual reporter) in the data set with NOG turned out to be 73.4%.
On the same count and under the same terms, next, “sense rGrCrUrGrCrUrGrCrGrCrUrCrGrCrUrGrCrUrCdTdT / antisense rGrArGrCrArGrCrGrArGrCrGrCrArGrCrArGrCdGdT”: 78.8%; “sense rGrCrCrGrGrCrGrGrCrCrArGrCrArCrUrArUrCdTdT / antisense rGrArUrArGrUrGrCrUrGrGrCrCrGrCrCrGrGrCdCdG”: 82.2%.
Same read-out and setting: next, “sense rGrArArGrCrUrGrCrGrGrArGrGrArArGrUrUrAdTdT / antisense rUrArArCrUrUrCrCrUrCrCrGrCrArGrCrUrUrCdTdT”: 102%; “sense rGrArGrCrUrGrGrArCrCrArGrCrUrGrCrUrGrCdTdT / antisense rGrCrArGrCrArGrCrUrGrGrUrCrCrArGrCrUrCdCdG”: 71.8%.
With “sense rGrArArCrGrArGrArCrGrCrUrGrCrUrGrCrGrCdTdT / antisense rGrCrGrCrArGrCrArGrCrGrUrCrUrCrGrUrUrCdAdG”, the normalised inhibition (eCFP-eYFP dual reporter) with NOG was found to be 74.1%.
Turning to “sense rUrGrUrGrGrUrCrGrCrArGrArCrArUrUrCrUrGdTdT / antisense rCrArGrArArUrGrUrCrUrGrCrGrArCrCrArCrAdGdC”, in the data set with NOG, the normalised inhibition (eCFP-eYFP dual reporter) came to 57.5%.
Regarding “sense rCrCrUrCrArCrGrGrUrGrCrUrGrCrGrGrUrGrGdTdT / antisense rCrCrArCrCrGrCrArGrCrArCrCrGrUrGrArGrGdTdG”, the normalised inhibition (eCFP-eYFP dual reporter) with NOG stood at 70.1%.
Regarding “sense rGrCrGrGrCrArGrCrGrGrCrCrGrUrCrGrGrGrGdTdT / antisense rCrCrCrCrGrArCrGrGrCrCrGrCrUrGrCrCrGrCdAdG”, the normalised inhibition (eCFP-eYFP dual reporter) in the data set with NOG worked out at 70.5%.
In the case of “sense rCrCrUrGrGrUrGrGrArCrCrUrCrArUrCrGrArAdTdT / antisense rUrUrCrGrArUrGrArGrGrUrCrCrArCrCrArGrGdGdG”, the normalised inhibition (eCFP-eYFP dual reporter) with NOG amounted to 81.7%.
As for “sense rUrGrGrUrCrGrCrArGrArCrArUrUrCrUrGrCrCdTdT / antisense rGrGrCrArGrArArUrGrUrCrUrGrCrGrArCrCrAdCdA”, the normalised inhibition (eCFP-eYFP dual reporter) with NOG turned out to be 40.5%.
